Literature values, collected in patent US20240100064A1, “METHODS OF TREATING NEURODEVELOPMENTAL DISORDERS” (Woolsey Pharmaceuticals, Inc., priority 2020, published 2024).
Structures can show the parent of a compound that is named as a salt.

How the values were obtained:
[1] = system: oligophrenin-1-deficient mice
[2] = in vivo, 1-hydroxy metabolite (Shibuya 2001)
[3] = oligophrenin-1-deficient mice (Allegra et al. 2017)
[4] = oligophrenin-1 deficient mice (Meziane et al. 2016)

SMILES | rescuing axon formation [1, 3] | spine density [1, 3] | hippocampal hyperexcitability ([1]; oligophrenin-1 deficient mice (Busti 2020)) | behavioral changes [1, 4] | brain ventricular enlargement [1, 4] | half-life [2]
O=S(=O)(c1cccc2cnccc12)N1CCCNCC1 [Fasudil, Hexahydro-1-(5-isoquinolinesulfonyl)-1H-1,4-diazepine monohydrochloride hemihydrate] | not effective | restored | rescue | reverse | reverse | 
O=S(=O)(c1cccc2c(O)nccc12)N1CCCNCC1 [M3] |  |  |  |  |  | about 8 hours
